Assay results from article PMC12998938, “Neutrophil store-operated Ca^2+ entry: A correctable biomarker of cystic fibrosis lung disease progression” (Journal of cystic fibrosis : official journal of the …, 2025).

What was measured:
[1] = test system: ER Ca2+ store release in CF neutrophils; assay: Fluo-4 ER Ca2+ release, CF neutrophils; format: cell-based, human; settings: 3 h pre-treatment, 1 μM thapsigargin, no extracellular Ca2+, 3 donors in triplicate, curves non-CF vs CF p<0.0001
Procedure: Isolated neutrophils were incubated with peptide or vehicle control for 3 h. For the final hour of treatment, cells were loaded with Fluo-4 direct (Thermofisher) for 45 min at 37°C and 15 min at room temperature as described.
Fig. 3. ELD607 inhibits SOCE in non-CF and CF neutrophils. (A) and (B) Mean changes in fluo-4 fluorescence as a marker of cytoplasmic Ca^2+ levels in non-CF and CF neutrophils respectively before and after stimulation with 1 μM thapsigargin (Tg). Before stimulation, neutrophils were exposed to vehicle (0.1% DMSO in PBS), 10 μM ELD607 or scrambled peptide (control) for 3 h. N = 10 non-CF and 21 CF donors. Stats show ELD607 vs vehicle or scrambled peptide based on color. […] Neutrophils were stimulated with thapsigargin (1 μM) in the absence of extracellular Ca^2+ to allow the release of Ca^2+ stores to be measured. Extracellular Ca^2+ was then returned so that extracellular Ca^2+ influx could be measured. (C) Mean fold change in Fluo-4 fluorescence during ER store release in non-CF and CF neutrophils. […] (E) Mean fold change in fluo-4 fluorescence during Ca^2+ influx in non-CF and CF neutrophils. […]
SOCE has 2 phases: release of Ca^2+ from ER stores and Ca^2+ influx from the extracellular space via Ca^2+ channels such as Orai1. […] Once the stores had emptied, extracellular Ca^2+ was reintroduced and Ca^2+ influx was measured (Fig. 3C–F). […]

[2] = test system: Pseudomonas aeruginosa-infected mice; settings: ref [21], cited from earlier work
MRSA-infected mice = test system: MRSA-infected mice; design: method as in earlier work; settings: reduced lung injury, increased survival, ref [21]; cited from earlier work
Orai1 = assay: SOCE in triple knockout HEK293T cells transfected with Orai1; format: cell-based; settings: TKO + Orai1, vs wild-type HEK293T; thapsigargin; dose response; 7-9 replicates; Orai1, 2, 3 plots differ p<0.001
Text: We hypothesized that inhibiting SOCE in CF neutrophils may reduce the secretion of neutrophil elastase and other proteins associated with CF lung disease. To validate ELD607’s specificity for Orai1 over Orai2 and Orai3, we first evaluated ELD607 function in HEK293T cells that had Orai1, Orai2 and Orai3 stably knocked out. […] Next we evaluated ELD607’s ability to inhibit SOCE in non-CF and CF neutrophils.
Supplemental figure 3. […] Dose responses of thapsigargin-induced changes in cytoplasmic Ca^2+ concentrations. These studies were performed in HEK293T where Orai1, Orai2 and Orai3 had been stably knocked down (triple knockout cells, TKO) or in TKO cells that were transiently transfected with Orai1, Orai2 or Orai3 as indicated. All data are from 7-9 replicates per data point from 3 separate experiments.

VHDIVNMLIRG [ELD607, size-optimized SPLUNC1/α6 peptidomimetic]
IC50 [1]: 413 nM | neutrophilia and neutrophil elastase release ([2]; P. aeruginosa-infected mice): reduces neutrophilia and neutrophil elastase release | neutrophil influx into the lungs ([2]; mice, P. aeruginosa, reduced lung injury, increased survival): reduces neutrophil influx into the lungs of mice | neutrophil influx into the lungs (MRSA-infected mice): reduces neutrophil influx into the lungs of mice | sensitivity of SOCE to ELD607 (Orai1): restored the sensitivity to ELD607 seen in wild-type HEK293T cells
